Reference: article PMC11913174 (Organic & biomolecular chemistry, 2024)

What was measured:
[1] = tested on: chloroquine-resistant Dd2 Plasmodium falciparum parasites; assay: SYBR Green I antiplasmodial assay against chloroquine-resistant Dd2 parasites; format: cell-based; settings: DD2, read-out: EC50 against Dd2
[2] = tested on: 3D7 (wild-type) parasites; assay: Antiplasmodial dose-response against 3D7; format: cell-based; settings: Plasmodium falciparum, 3D7, read-out: EC50 against 3D7

EC50 [1]: > 100 µM | EC50 [2]: > 100 µM
SMILES: COC(=O)[C@H]1[C@H]2C[C@@H]3c4[nH]c5cc(OC)ccc5c4CCN3C[C@H]2C[C@@H](OC(=O)c2cc(OC)c(OC)c(OC)c2)[C@@H]1OC [reserpine]
